Results: US20260356819A1, “OXOISOINDOLINYL-SUBSTITUTED […] DERIVATIVE AND USE THEREOF” (GLUETACS THERAPEUTICS (SHANGHAI) CO., LTD., priority 2023, published 2026)

Assays:
Format in all cases: cell-based
Details in all cases: compounds at 50 nM and 500 nM
IKZF3 = target: T1, IKZF3 (Homo sapiens, UniProt Q96SW2+Q9UKT9); test: Western blot degradation of IKZF3 in hPBMCs (24 h)
T1 construct: The supernatant was aspirated as the extracted total cell protein; endogenous in cells; host or cells: human peripheral blood mononuclear cells (hPBMCs)
Method in brief: (§1)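 Degradation in primary human PBMCs after 24 h compound exposure at 50 and 500 nM. Western blot band intensities, normalised to an internal control protein, expressed as % protein remaining relative to DMSO.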

IKZF2 = target: T2, IKZF2 (Homo sapiens, UniProt Q96SW2+Q9UKS7); test: Western blot degradation of IKZF2 in hPBMCs (24 h)
T2 construct: The supernatant was aspirated as the extracted total cell protein; endogenous in cells; host or cells: human peripheral blood mononuclear cells (hPBMCs)
Method in brief: as §1

IKZF1 = target: T3, IKZF1 (Homo sapiens, UniProt Q13422+Q96SW2); test: Western blot degradation of IKZF1 in hPBMCs (24 h)
T3 construct: The supernatant was aspirated as the extracted total cell protein; endogenous in cells; host or cells: human peripheral blood mononuclear cells (hPBMCs)
Method in brief: as §1

CK1α = target: T4, CK1α (Homo sapiens, UniProt P48729+Q96SW2); test: Western blot degradation of CK1α in hPBMCs (24 h)
T4 construct: The supernatant was aspirated as the extracted total cell protein; endogenous in cells; host or cells: human peripheral blood mononuclear cells (hPBMCs)
Method in brief: as §1

GSPT1 = target: T5, GSPT1 (Homo sapiens, UniProt P15170+Q96SW2); test: Western blot degradation of GSPT1 in hPBMCs (24 h)
T5 construct: The supernatant was aspirated as the extracted total cell protein; endogenous in cells; host or cells: human peripheral blood mononuclear cells (hPBMCs)
Method in brief: as §1

WEE1 = target: T6, WEE1 (Homo sapiens, UniProt P30291+Q96SW2); test: Western blot degradation of WEE1 in hPBMCs (24 h)
T6 construct: The supernatant was aspirated as the extracted total cell protein; endogenous in cells; host or cells: human peripheral blood mononuclear cells (hPBMCs)
Method in brief: as §1

T3 sequence (Q13422 whole entry): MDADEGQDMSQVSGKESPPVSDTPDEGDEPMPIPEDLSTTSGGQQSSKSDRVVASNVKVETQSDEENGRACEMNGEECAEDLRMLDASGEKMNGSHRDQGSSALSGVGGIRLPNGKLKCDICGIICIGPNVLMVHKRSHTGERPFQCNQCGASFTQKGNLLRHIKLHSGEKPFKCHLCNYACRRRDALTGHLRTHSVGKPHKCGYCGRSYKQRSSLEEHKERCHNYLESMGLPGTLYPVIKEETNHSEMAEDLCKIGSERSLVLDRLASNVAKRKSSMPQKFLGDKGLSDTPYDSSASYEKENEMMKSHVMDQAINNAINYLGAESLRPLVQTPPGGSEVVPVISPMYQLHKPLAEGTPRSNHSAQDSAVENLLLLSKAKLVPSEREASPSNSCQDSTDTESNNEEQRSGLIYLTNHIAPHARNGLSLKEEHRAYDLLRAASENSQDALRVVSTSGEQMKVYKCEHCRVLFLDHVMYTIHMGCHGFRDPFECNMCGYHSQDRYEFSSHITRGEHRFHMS
T3 sequence (Q96SW2 whole entry): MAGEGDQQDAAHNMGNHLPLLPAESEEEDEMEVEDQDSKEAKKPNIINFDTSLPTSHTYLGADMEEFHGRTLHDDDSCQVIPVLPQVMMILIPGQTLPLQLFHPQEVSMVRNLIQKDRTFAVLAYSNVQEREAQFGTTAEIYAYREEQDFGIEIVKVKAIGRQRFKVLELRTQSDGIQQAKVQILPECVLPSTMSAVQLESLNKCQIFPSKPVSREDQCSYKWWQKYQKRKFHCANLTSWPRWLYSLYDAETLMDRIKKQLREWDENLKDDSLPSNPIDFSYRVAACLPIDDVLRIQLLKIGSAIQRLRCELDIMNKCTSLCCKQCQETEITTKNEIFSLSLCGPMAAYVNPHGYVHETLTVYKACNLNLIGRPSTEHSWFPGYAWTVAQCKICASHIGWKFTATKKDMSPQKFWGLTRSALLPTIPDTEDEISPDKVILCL
T3 sequence (Q16531 whole entry partner): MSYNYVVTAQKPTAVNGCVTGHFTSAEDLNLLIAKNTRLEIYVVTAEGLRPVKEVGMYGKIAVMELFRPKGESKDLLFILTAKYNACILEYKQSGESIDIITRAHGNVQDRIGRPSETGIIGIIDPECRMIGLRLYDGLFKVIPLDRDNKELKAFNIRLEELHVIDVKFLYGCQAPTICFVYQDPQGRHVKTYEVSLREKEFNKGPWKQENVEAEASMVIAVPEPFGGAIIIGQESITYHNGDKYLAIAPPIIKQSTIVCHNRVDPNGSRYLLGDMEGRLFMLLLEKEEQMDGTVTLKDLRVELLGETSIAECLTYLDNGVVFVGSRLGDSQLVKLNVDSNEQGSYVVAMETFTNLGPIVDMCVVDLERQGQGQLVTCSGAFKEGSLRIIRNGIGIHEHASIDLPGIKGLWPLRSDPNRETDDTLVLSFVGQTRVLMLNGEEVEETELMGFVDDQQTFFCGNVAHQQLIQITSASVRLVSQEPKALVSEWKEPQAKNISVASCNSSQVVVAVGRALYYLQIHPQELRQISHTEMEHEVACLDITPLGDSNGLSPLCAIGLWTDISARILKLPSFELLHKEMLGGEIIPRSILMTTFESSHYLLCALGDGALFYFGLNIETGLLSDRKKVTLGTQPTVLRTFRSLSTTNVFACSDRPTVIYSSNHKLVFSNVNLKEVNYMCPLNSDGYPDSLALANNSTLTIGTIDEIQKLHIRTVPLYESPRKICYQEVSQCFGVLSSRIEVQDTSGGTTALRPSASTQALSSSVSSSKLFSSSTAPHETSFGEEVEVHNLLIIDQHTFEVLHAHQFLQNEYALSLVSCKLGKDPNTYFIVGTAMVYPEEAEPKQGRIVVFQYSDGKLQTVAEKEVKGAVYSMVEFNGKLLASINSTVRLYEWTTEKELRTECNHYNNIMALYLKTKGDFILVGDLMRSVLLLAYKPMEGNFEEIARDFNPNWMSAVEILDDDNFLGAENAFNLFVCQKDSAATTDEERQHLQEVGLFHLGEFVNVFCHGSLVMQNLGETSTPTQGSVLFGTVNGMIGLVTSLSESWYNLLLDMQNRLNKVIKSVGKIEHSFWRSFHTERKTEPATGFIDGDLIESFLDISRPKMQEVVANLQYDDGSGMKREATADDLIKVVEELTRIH
T6 sequence (P30291 whole entry): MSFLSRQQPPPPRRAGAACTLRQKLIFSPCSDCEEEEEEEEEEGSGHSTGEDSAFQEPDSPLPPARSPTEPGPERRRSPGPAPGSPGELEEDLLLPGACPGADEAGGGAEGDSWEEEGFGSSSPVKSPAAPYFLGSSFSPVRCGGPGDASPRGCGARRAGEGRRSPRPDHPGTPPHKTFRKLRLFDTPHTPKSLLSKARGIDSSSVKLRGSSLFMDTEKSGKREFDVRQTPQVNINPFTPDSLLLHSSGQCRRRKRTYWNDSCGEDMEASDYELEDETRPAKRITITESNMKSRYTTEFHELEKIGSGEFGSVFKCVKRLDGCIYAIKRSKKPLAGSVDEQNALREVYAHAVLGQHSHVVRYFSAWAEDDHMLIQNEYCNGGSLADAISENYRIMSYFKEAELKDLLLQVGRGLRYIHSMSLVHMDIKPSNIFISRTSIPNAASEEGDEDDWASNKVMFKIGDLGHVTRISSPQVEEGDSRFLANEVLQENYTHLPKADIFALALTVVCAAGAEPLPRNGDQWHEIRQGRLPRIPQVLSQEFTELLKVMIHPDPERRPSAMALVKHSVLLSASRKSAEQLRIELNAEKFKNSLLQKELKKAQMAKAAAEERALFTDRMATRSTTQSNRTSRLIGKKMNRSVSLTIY
T6 sequence (Q96SW2 whole entry): as the sequence (Q96SW2 whole entry) above
T6 sequence (Q16531 whole entry partner): as the sequence (Q16531 whole entry partner) above
T1 sequence (Q9UKT9 whole entry): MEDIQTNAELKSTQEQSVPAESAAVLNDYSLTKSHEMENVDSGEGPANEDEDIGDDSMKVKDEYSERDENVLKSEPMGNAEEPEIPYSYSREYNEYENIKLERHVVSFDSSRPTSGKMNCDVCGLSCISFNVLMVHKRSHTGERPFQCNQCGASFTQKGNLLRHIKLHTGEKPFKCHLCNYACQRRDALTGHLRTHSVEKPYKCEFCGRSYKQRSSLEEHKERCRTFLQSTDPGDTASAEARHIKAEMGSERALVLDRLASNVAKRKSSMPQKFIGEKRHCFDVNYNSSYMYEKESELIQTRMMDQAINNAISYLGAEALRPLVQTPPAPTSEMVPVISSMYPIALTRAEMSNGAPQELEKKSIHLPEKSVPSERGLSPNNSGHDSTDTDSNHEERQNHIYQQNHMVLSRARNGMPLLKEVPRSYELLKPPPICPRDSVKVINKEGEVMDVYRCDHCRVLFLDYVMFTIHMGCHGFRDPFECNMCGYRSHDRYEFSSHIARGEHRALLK
T1 sequence (Q96SW2 whole entry): as the sequence (Q96SW2 whole entry) above
T1 sequence (Q16531 whole entry partner): as the sequence (Q16531 whole entry partner) above
T5 sequence (P15170 whole entry): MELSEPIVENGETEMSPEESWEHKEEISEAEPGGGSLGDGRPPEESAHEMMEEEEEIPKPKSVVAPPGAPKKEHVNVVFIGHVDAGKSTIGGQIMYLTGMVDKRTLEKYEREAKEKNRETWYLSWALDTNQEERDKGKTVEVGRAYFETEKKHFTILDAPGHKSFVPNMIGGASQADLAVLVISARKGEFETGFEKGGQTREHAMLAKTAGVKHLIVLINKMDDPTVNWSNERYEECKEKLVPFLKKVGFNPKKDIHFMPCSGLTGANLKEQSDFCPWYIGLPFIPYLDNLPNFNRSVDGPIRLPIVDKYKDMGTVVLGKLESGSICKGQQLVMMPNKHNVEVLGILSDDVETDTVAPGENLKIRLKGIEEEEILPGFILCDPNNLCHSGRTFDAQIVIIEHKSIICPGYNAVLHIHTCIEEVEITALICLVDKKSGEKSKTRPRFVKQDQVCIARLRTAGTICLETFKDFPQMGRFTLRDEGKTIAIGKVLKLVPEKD
T5 sequence (Q96SW2 whole entry): as the sequence (Q96SW2 whole entry) above
T5 sequence (Q16531 whole entry partner): as the sequence (Q16531 whole entry partner) above
T4 sequence (P48729 whole entry): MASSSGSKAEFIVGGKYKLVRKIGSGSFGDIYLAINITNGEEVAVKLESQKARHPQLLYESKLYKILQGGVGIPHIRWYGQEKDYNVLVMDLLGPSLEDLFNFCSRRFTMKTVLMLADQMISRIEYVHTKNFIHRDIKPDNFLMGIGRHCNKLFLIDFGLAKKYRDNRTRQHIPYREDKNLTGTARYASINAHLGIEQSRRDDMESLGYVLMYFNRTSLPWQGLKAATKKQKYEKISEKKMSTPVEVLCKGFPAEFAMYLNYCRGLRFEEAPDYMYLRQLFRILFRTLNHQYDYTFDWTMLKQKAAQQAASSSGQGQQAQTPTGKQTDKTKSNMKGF
T4 sequence (Q96SW2 whole entry): as the sequence (Q96SW2 whole entry) above
T4 sequence (Q16531 whole entry partner): as the sequence (Q16531 whole entry partner) above

SMILES	IKZF3 substrate protein remaining % (IKZF3)	IKZF2 substrate protein remaining % (IKZF2)	IKZF1 substrate protein remaining % (IKZF1)	CK1α substrate protein remaining % (CK1α)	GSPT1 substrate protein remaining % (GSPT1)	WEE1 substrate protein remaining % (WEE1)
CC1(C)CCC(CN2CC3CC2CN3Cc2ccc3c(c2)C(=O)N(N2CCC(=O)NC2=O)C3=O)=C(c2ccc(Cl)cc2)C1 (stereo not drawn) [GT-07334, 5-((5-((4′-chloro-5,5-dimethyl-3,4,5,6-tetrahydro-[1,1′-biphenyl]-2-yl)methyl)-2,5-diazabicyclo[2.2.1]heptan-2-yl)methyl)-2-(2,4-dioxotetrahydropyrimidin-1(2H)-yl)isoindoline-1,3-dione]	B (80%< substrate protein remaining % ≤100%)	B (80%< substrate protein remaining % ≤100%)	B (80%< substrate protein remaining % ≤100%)	A (0% ≤ substrate protein remaining % ≤80%)	B (80%< substrate protein remaining % ≤100%)	A (0% ≤ substrate protein remaining % ≤80%)
Cc1cscc1C1CCN(Cc2ccc3c(c2)CN(N2CCC(=O)NC2=O)C3=O)CC1 [GT-07372, 1-(5-((4-(4-methylthiophen-3-yl)piperidin-1-yl)methyl)-1-oxoisoindolin-2-yl)dihydropyrimidine-2,4(1H,3H)-dione]	A (0% ≤ substrate protein remaining % ≤80%)	B (80%< substrate protein remaining % ≤100%)	B (80%< substrate protein remaining % ≤100%)	B (80%< substrate protein remaining % ≤100%)	A (0% ≤ substrate protein remaining % ≤80%)	B (80%< substrate protein remaining % ≤100%)
Cc1cc(C2CCN(Cc3ccc4c(c3)CN(N3CCC(=O)NC3=O)C4=O)CC2)cs1 [GT-07373, 1-(5-((4-(5-methylthiophen-3-yl)piperidin-1-yl)methyl)-1-oxoisoindolin-2-yl)dihydropyrimidine-2,4(1H,3H)-dione]	A (0% ≤ substrate protein remaining % ≤80%)	B (80%< substrate protein remaining % ≤100%)	B (80%< substrate protein remaining % ≤100%)	B (80%< substrate protein remaining % ≤100%)	A (0% ≤ substrate protein remaining % ≤80%)	B (80%< substrate protein remaining % ≤100%)
O=C1CCN(N2Cc3cc(CN4CCC(c5ccco5)CC4)ccc3C2=O)C(=O)N1 [GT-07374, 1-(5-((4-(furan-2-y1)piperidin-1-yl)methyl)-1-oxoisoindolin-2-yl)dihydropyrimidine-2,4(1H,3H)-dione]	B (80%< substrate protein remaining % ≤100%)	B (80%< substrate protein remaining % ≤100%)	B (80%< substrate protein remaining % ≤100%)	A (0% ≤ substrate protein remaining % ≤80%)	A (0% ≤ substrate protein remaining % ≤80%)	B (80%< substrate protein remaining % ≤100%)
O=C1CCN(N2Cc3cc(CN4CCC(c5ccoc5)CC4)ccc3C2=O)C(=O)N1 [GT-07375, 1-(5-((4-(furan-3-yl)piperidin-1-yl)methyl)-1-oxoisoindolin-2-yl)dihydropyrimidine-2,4(1H,3H)-dione]	B (80%< substrate protein remaining % ≤100%)	B (80%< substrate protein remaining % ≤100%)	B (80%< substrate protein remaining % ≤100%)	A (0% ≤ substrate protein remaining % ≤80%)	A (0% ≤ substrate protein remaining % ≤80%)	B (80%< substrate protein remaining % ≤100%)
O=C1CCN(N2Cc3cc(CN4C5CC4CN(C(=O)C4=C(c6ccc(F)cc6)CCCC4)C5)ccc3C2=O)C(=O)N1 [GT-07376, 1-(5-((3-(4′-fluoro-3,4,5,6-tetrahydro-[1,1′-biphenyl]-2-carbonyl)-3,6-diazabicyclo[3.1.1]heptan-6-yl)methyl)-1-oxoisoindolin-2-yl)dihydropyrimidine-2,4(1H,3H)-dione]	B (80%< substrate protein remaining % ≤100%)	B (80%< substrate protein remaining % ≤100%)	B (80%< substrate protein remaining % ≤100%)	B (80%< substrate protein remaining % ≤100%)	B (80%< substrate protein remaining % ≤100%)	A (0% ≤ substrate protein remaining % ≤80%)
O=C1CCN(N2C(=O)c3ccc(CN4C5CC4CN(C(=O)C4=C(c6ccc(F)cc6)CCCC4)C5)cc3C2=O)C(=O)N1 [GT-07377, 2-(2,4-dioxotetrahydropyrimidin-1(2H)-yl)-5-((3-(4′-fluoro-3,4,5,6-tetrahydro-[1,1′-biphenyl]-2-carbonyl)-3,6-diazabicyclo[3.1.1]heptan-6-yl)methyl)isoindoline-1,3-dione]	B (80%< substrate protein remaining % ≤100%)	A (0% ≤ substrate protein remaining % ≤80%)	B (80%< substrate protein remaining % ≤100%)	A (0% ≤ substrate protein remaining % ≤80%)	A (0% ≤ substrate protein remaining % ≤80%)	A (0% ≤ substrate protein remaining % ≤80%)
O=C1CCN(N2C(=O)c3ccc(CN4CCC(c5ccsc5)CC4)cc3C2=O)C(=O)N1 [GT-07420, 2-(2,4-dioxotetrahydropyrimidin-1(2H)-yl)-5-((4-(thiophen-3-yl)piperidin-1-yl)methyl)isoindoline-1,3-dione]	B (80%< substrate protein remaining % ≤100%)	B (80%< substrate protein remaining % ≤100%)	B (80%< substrate protein remaining % ≤100%)	A (0% ≤ substrate protein remaining % ≤80%)	A (0% ≤ substrate protein remaining % ≤80%)	B (80%< substrate protein remaining % ≤100%)
Cc1cc(C2CCN(Cc3ccc4c(c3)C(=O)N(N3CCC(=O)NC3=O)C4=O)CC2)cs1 [GT-07421, 2-(2,4-dioxotetrahydropyrimidin-1(2H)-yl)-5-((4-(5-methylthiophen-3-yl)piperidin-1-yl)methyl)isoindoline-1,3-dione]	B (80%< substrate protein remaining % ≤100%)	B (80%< substrate protein remaining % ≤100%)	B (80%< substrate protein remaining % ≤100%)	A (0% ≤ substrate protein remaining % ≤80%)	A (0% ≤ substrate protein remaining % ≤80%)	B (80%< substrate protein remaining % ≤100%)
O=C1CCN(N2C(=O)c3ccc(CN4CCC(c5ccoc5)CC4)cc3C2=O)C(=O)N1 [GT-07422, 2-(2,4-dioxotetrahydropyrimidin-1(2H)-yl)-5-((4-(furan-3-yl)piperidin-1-yl)methyl)isoindoline-1,3-dione]	B (80%< substrate protein remaining % ≤100%)	B (80%< substrate protein remaining % ≤100%)	B (80%< substrate protein remaining % ≤100%)	A (0% ≤ substrate protein remaining % ≤80%)	A (0% ≤ substrate protein remaining % ≤80%)	B (80%< substrate protein remaining % ≤100%)
Cc1cc(C2=CCN(Cc3ccc4c(c3)C(=O)N(N3CCC(=O)NC3=O)C4=O)CC2)cs1 [GT-07423, 2-(2,4-dioxotetrahydropyrimidin-1(2H)-yl)-5-((4-(5-methylthiophen-3-yl)-3,6-dihydropyridin-1(2H)-yl)methyl)isoindoline-1,3-dione]	A (0% ≤ substrate protein remaining % ≤80%)	B (80%< substrate protein remaining % ≤100%)	B (80%< substrate protein remaining % ≤100%)	A (0% ≤ substrate protein remaining % ≤80%)	A (0% ≤ substrate protein remaining % ≤80%)	A (0% ≤ substrate protein remaining % ≤80%)
O=C1CCN(N2C(=O)c3ccc(CN4CCC(c5cccs5)CC4)cc3C2=O)C(=O)N1 [GT-07424, 2-(2,4-dioxotetrahydropyrimidin-1(2H)-yl)-5-((4-(thiophen-2-yl)piperidin-1-yl)methyl)isoindoline-1,3-dione]	A (0% ≤ substrate protein remaining % ≤80%)	B (80%< substrate protein remaining % ≤100%)	A (0% ≤ substrate protein remaining % ≤80%)	B (80%< substrate protein remaining % ≤100%)	A (0% ≤ substrate protein remaining % ≤80%)	A (0% ≤ substrate protein remaining % ≤80%)
